Assay results: US8192962B2, “Processes for detecting toxic substances” (Daikin Industries, Ltd., priority 2001, dated 2012)

Tested on: Unknown protein yeast genes
Assay: DNA chip mRNA expression in yeast, unknown protein yeast genes (Table 1)
Format: cell-based, Saccharomyces cerevisiae S288C
Experimental: Yeast (Saccharomyces cerevisiae S288C (α SUC2mal mel gap2 CUP1)) were incubated at 25° C. on YPD medium (yeast extract 1%, polypepton 2%, glucose 2%). One of toxic chemical substances was added to the cells at logarithmic growth phase, and the cells were further incubated for two hours. Cells were cultured without any chemical substance in the same condition, and were used as control. Concentrations of the chemical substances were defined to inhibit the growth of the yeast but not lead to death.
After completion of the incubation, the culture was centrifuged to collect the cells. To the cells, sodium acetate buffer (50 mM sodium acetate, 10 mM EDTA, 1% SDS) was added, and the mixture was shaken at 65° C. for five minutes, followed by returning to room temperature, and obtaining the supernatant, of which the procedures were repeated two times. To the supernatant, ½ amount of a solution of phenol/chloroform was added, and the mixture was centrifuged to give a supernatant, which was added with an equal amount of chloroform, and the mixture was centrifuged to give a supernatant. To the supernatant, an equal amount of isopropanol containing 0.3 M sodium acetate was added, and the mixture was allowed to stand at room temperature for 30 minutes, after which the mixture was centrifuged to give a sediment of the whole RNAs. Seventy % ethanol was added to the sediment, and the mixture was again centrifuged to give a sediment, which was then dried and dissolved in water. mRNA was isolated from the whole RNAs as followings. In view of the fact that a poly A chain is attached to the 3′ terminus of mRNA, a polynucleotide having a poly T structure which was immobilized on the surface of latex beads was used to trap the mRNA, and then the mRNA was washed and eluted with spine column (Oligotex-dT30<Super>mRNA Purification Kit, Takara). Reverse transcription of the mRNA was conducted with a reverse transcriptase (Super Script II Reverse Transcriptase; catalogue No. 18064-014, GibcoBRL) using fluorescence-labeled nucleotides to give cDNAs that were introduced with Cy3-dUTP or Cy5-dUTP during the reverse transcription.
The labeled cDNAs were dissolved in TE buffer (10mM Tris-HCl/1 mM EDTA, pH8.0), and the solution was dropped on the DNA chip containing the whole genes of yeast (DNA Chip Research Inc. Japan) so that the cDNAs were hybridized on the DNA chip at 65° C. for over 12 hours. The fluoresces intensity of the DNA chip was read with a scanner, and the ratio relative to the fluorescence intensity resulting from the absence of chemical substance was estimated as the following, which is shown in Tables 1 to 9: […]

[Cl][Cd][Cl] [(2), CdCl2]
The level of expressed mRNA in the presence of chemical substance/The level of expressed mRNA in the absence of chemical substance (yeast gene YAL053W, incubated two hours with chemical substance): 0.9
The level of expressed mRNA in the presence of chemical substance/The level of expressed mRNA in the absence of chemical substance (yeast gene YBL048W): 7.9
The level of expressed mRNA in the presence of chemical substance/The level of expressed mRNA in the absence of chemical substance (yeast gene YBL107C): 1.1
The level of expressed mRNA in the presence of chemical substance/The level of expressed mRNA in the absence of chemical substance (yeast gene YDL072C, incubated two hours with chemical substance): 1.1
The level of expressed mRNA in the presence of chemical substance/The level of expressed mRNA in the absence of chemical substance (yeast gene YDL204W, incubated two hours with chemical substance): 1.9
The level of expressed mRNA in the presence of chemical substance/The level of expressed mRNA in the absence of chemical substance (yeast gene YDL222C, incubated two hours with chemical substance): 1.1
The level of expressed mRNA in the presence of chemical substance/The level of expressed mRNA in the absence of chemical substance (yeast gene YDR330W, incubated two hours with chemical substance): 1.5
The level of expressed mRNA in the presence of chemical substance/The level of expressed mRNA in the absence of chemical substance (yeast gene YDR411C, incubated two hours with chemical substance): 2.8
The level of expressed mRNA in the presence of chemical substance/The level of expressed mRNA in the absence of chemical substance (yeast gene YDR511W, incubated two hours with chemical substance): 1.7
The level of expressed mRNA in the presence of chemical substance/The level of expressed mRNA in the absence of chemical substance (yeast gene YDR545W, incubated two hours with chemical substance): 1.2
The level of expressed mRNA in the presence of chemical substance/The level of expressed mRNA in the absence of chemical substance (yeast gene YEL001C, incubated two hours with chemical substance): 1.0
The level of expressed mRNA in the presence of chemical substance/The level of expressed mRNA in the absence of chemical substance (yeast gene YER004W, incubated two hours with chemical substance): 1.5
The level of expressed mRNA in the presence of chemical substance/The level of expressed mRNA in the absence of chemical substance (yeast gene YER035W, incubated two hours with chemical substance): 1.6
The level of expressed mRNA in the presence of chemical substance/The level of expressed mRNA in the absence of chemical substance (yeast gene YER079W, incubated two hours with chemical substance): 1.6
The level of expressed mRNA in the presence of chemical substance/The level of expressed mRNA in the absence of chemical substance (yeast gene YER106W, incubated two hours with chemical substance): 0.7
The level of expressed mRNA in the presence of chemical substance/The level of expressed mRNA in the absence of chemical substance (yeast gene YER158C, incubated two hours with chemical substance): 0.9
The level of expressed mRNA in the presence of chemical substance/The level of expressed mRNA in the absence of chemical substance (yeast gene YER163C, incubated two hours with chemical substance): 2.4
The level of expressed mRNA in the presence of chemical substance/The level of expressed mRNA in the absence of chemical substance (yeast gene YER175C, incubated two hours with chemical substance): 1.2
The level of expressed mRNA in the presence of chemical substance/The level of expressed mRNA in the absence of chemical substance (yeast gene YFL006W, incubated two hours with chemical substance): 2.8
The level of expressed mRNA in the presence of chemical substance/The level of expressed mRNA in the absence of chemical substance (yeast gene YFL010C, incubated two hours with chemical substance): 4.8
The level of expressed mRNA in the presence of chemical substance/The level of expressed mRNA in the absence of chemical substance (yeast gene YFL024C): 1.1
The level of expressed mRNA in the presence of chemical substance/The level of expressed mRNA in the absence of chemical substance (yeast gene YFL032W, incubated two hours with chemical substance): 1.5
The level of expressed mRNA in the presence of chemical substance/The level of expressed mRNA in the absence of chemical substance (yeast gene YGL037C, incubated two hours with chemical substance): 2.7
The level of expressed mRNA in the presence of chemical substance/The level of expressed mRNA in the absence of chemical substance (yeast gene YGL047W, incubated two hours with chemical substance): 1.9
The level of expressed mRNA in the presence of chemical substance/The level of expressed mRNA in the absence of chemical substance (yeast gene YGL053W, incubated two hours with chemical substance): 1.5
The level of expressed mRNA in the presence of chemical substance/The level of expressed mRNA in the absence of chemical substance (yeast gene YGL121C): 5.0
The level of expressed mRNA in the presence of chemical substance/The level of expressed mRNA in the absence of chemical substance (yeast gene YGL199C, incubated two hours with chemical substance): 1.7
The level of expressed mRNA in the presence of chemical substance/The level of expressed mRNA in the absence of chemical substance (yeast gene YGR101W, incubated two hours with chemical substance): 1.3
The level of expressed mRNA in the presence of chemical substance/The level of expressed mRNA in the absence of chemical substance (yeast gene YGR110W): 3.1
The level of expressed mRNA in the presence of chemical substance/The level of expressed mRNA in the absence of chemical substance (yeast gene YGR130C, incubated two hours with chemical substance): 0.7
The level of expressed mRNA in the presence of chemical substance/The level of expressed mRNA in the absence of chemical substance (yeast gene YGR154C, incubated two hours with chemical substance): 2.9
The level of expressed mRNA in the presence of chemical substance/The level of expressed mRNA in the absence of chemical substance (yeast gene YGR221C, incubated two hours with chemical substance): 2.2
The level of expressed mRNA in the presence of chemical substance/The level of expressed mRNA in the absence of chemical substance (yeast gene YHR138C, incubated two hours with chemical substance): 1.8
The level of expressed mRNA in the presence of chemical substance/The level of expressed mRNA in the absence of chemical substance (yeast gene YHR199C, incubated two hours with chemical substance): 2.0
The level of expressed mRNA in the presence of chemical substance/The level of expressed mRNA in the absence of chemical substance (yeast gene YIL023C, incubated two hours with chemical substance): 1.2
The level of expressed mRNA in the presence of chemical substance/The level of expressed mRNA in the absence of chemical substance (yeast gene YIL041W, incubated two hours with chemical substance): 1.2
The level of expressed mRNA in the presence of chemical substance/The level of expressed mRNA in the absence of chemical substance (yeast gene YIL087C, incubated two hours with chemical substance): 1.9
The level of expressed mRNA in the presence of chemical substance/The level of expressed mRNA in the absence of chemical substance (yeast gene YJL057C, incubated two hours with chemical substance): 1.2
The level of expressed mRNA in the presence of chemical substance/The level of expressed mRNA in the absence of chemical substance (yeast gene YJL066C, incubated two hours with chemical substance): 1.2
The level of expressed mRNA in the presence of chemical substance/The level of expressed mRNA in the absence of chemical substance (yeast gene YJL082W, incubated two hours with chemical substance): 0.8
The level of expressed mRNA in the presence of chemical substance/The level of expressed mRNA in the absence of chemical substance (yeast gene YJL151C, incubated two hours with chemical substance): 2.4
The level of expressed mRNA in the presence of chemical substance/The level of expressed mRNA in the absence of chemical substance (yeast gene YJL152W, incubated two hours with chemical substance): 1.5
The level of expressed mRNA in the presence of chemical substance/The level of expressed mRNA in the absence of chemical substance (yeast gene YJL161W, incubated two hours with chemical substance): 2.2
The level of expressed mRNA in the presence of chemical substance/The level of expressed mRNA in the absence of chemical substance (yeast gene YJL171C, incubated two hours with chemical substance): 0.7
The level of expressed mRNA in the presence of chemical substance/The level of expressed mRNA in the absence of chemical substance (yeast gene YJR008W, incubated two hours with chemical substance): 1.5
The level of expressed mRNA in the presence of chemical substance/The level of expressed mRNA in the absence of chemical substance (yeast gene YJR054W, incubated two hours with chemical substance): 0.9
The level of expressed mRNA in the presence of chemical substance/The level of expressed mRNA in the absence of chemical substance (yeast gene YKL071W): 3.8
The level of expressed mRNA in the presence of chemical substance/The level of expressed mRNA in the absence of chemical substance (yeast gene YKL086W, incubated two hours with chemical substance): 1.1
The level of expressed mRNA in the presence of chemical substance/The level of expressed mRNA in the absence of chemical substance (yeast gene YKL151C, incubated two hours with chemical substance): 3.1
The level of expressed mRNA in the presence of chemical substance/The level of expressed mRNA in the absence of chemical substance (yeast gene YKL153W, incubated two hours with chemical substance): 1.4
